# According to ChEMBL document CHEMBL5252645, “Hydroxylated cyclopamine analogues from Veratrum californicum and their hedgehog pathway inhibiting activity” (Bioorg Med Chem, 2023):
# Assays:
# [1] = Inhibition of Shh-induced hedgehog signalling pathway in mouse NIH/3T3 cells expressing Gli-Luc reporter gene assessed as reduction in Gli1 transcription activity incubated for 24 hrs in presence of mouse shh stimulation by dual luciferase Assay; assay type: cell-based; conditions: NIH3T3, 24 h
# [2] = Inhibition of Shh-induced hedgehog signalling pathway in mouse MEF cells expressing Gli-Luc reporter gene assessed as reduction in Gli1 transcription activity incubated for 24 hrs in presence of mouse shh stimulation by dual luciferase Assay; assay type: cell-based
Compound,IC50 [1] [nM],IC50 [2] [nM]
CC1=C2C[C@H]3[C@@H](CC=C4C[C@@H](O)CC[C@@]43C)[C@@H]2CC[C@]12O[C@@H]1[C@H](O)[C@H](C)CN[C@H]1[C@H]2C,150,210
C[C@@H]1CN[C@H]2[C@@H](C)[C@@]3(CC[C@@H]4C(=C3CO)C[C@H]3[C@H]4CC=C4C[C@@H](O)CC[C@@]43C)O[C@@H]2C1,2080,2800
CC1=C2C[C@H]3[C@@H](CC=C4C[C@@H](O)CC[C@@]43C)[C@@H]2CC[C@]12O[C@@H]1C[C@H](C)CN[C@H]1[C@H]2C [CYCLOPAMINE],270,110
